Assays:
[1] = tested on: HBV precore mutant (G1896A); assay: Antiviral testing: HBV replicative intermediates by Southern blot in Huh7 cells transfected with HBV plasmid (precore mutant); type: cell-based; settings: Hepatitis B virus, Huh-7
From the text: (§1) The plasmid containing 1.3×HBV genome in the vector pBlueBac4.5 was used as the infectious HBV clone. This clone already had the precore mutation at G1896A. The point mutation were created by site directed mutagenesis using the commercial kits according to the manufacturers specifications (QuikChange, Stratagene). A HBV recombinant encoding the reverse transcriptase mutations rtS85A was created. The nucleotide sequence of the plasmid and the point mutations generated by site directed mutagenesis were confirmed by sequencing using the ABI Prism Big Dye Terminator Cycle Sequencing Ready Reaction Kit according to the manufacturer's specifications (Perkin Elmer, Cetus Norwalk, Conn.).
(§2) Huh7 cells were seeded at approximately 20-40% confluency and then were grown for 16-24 hours before transfection. Plasmid DNA containing HBV encoding specific mutations was transfected using Fugene according to the manufacturers protocols.
ADV and LMV were resuspended in sterile water, aliquoted, and frozen at −20° C. to avoid repeated freezing and thawing of the drug. […]
HBV core particles were isolated from the cytoplasmic fraction of Huh7 cells lysis buffer which includes 0.5% w/v NP-40. […] After southern blot analysis a BioRad Phosphoimager and the Quantity One Analysis software (BioRad, Hecules Calif.) was used to analyze suitable exposures of Southern blots. […]

[2] = tested on: recombinant HBV encoding the mutant rtS85A; assay: Antiviral testing: HBV replicative intermediates by Southern blot in Huh7 cells transfected with HBV plasmid encoding rtS85A; type: cell-based, hepatitis B virus; settings: for IC50: Hepatitis B virus, Huh-7
From the text: as §1, §2
ADV and LMV were resuspended in sterile water, aliquoted, and frozen at −20° C. to avoid repeated freezing and thawing of the drug. Medium containing ADV or LMV were prepared daily as needed. In experiments in which ADV or LMV treatment was initiated […] transfection, Huh7 cells were exposed to the indicated concentration of ADV or LMV immediately after transfection with the HBV plasmid.
HBV core particles were isolated from the cytoplasmic fraction of Huh7 cells lysis buffer which includes 0.5% w/v NP-40. Cytoplasmic extracts were treated with DNAse, adjusted to 10 mmol/l […] and unprotected DNA was removed by an incubation to 500 µg/ml Proteinase K for 1.5 hours at 37° C. HBV DNA in the samples were then extracted using commercial DNA extraction kits such as Qiagen (DNA extraction) or in-house methods using sequential phenol and chloroform extractions, and the nucleic acids were recovered by ethanol precipitation. […] After southern blot analysis a BioRad Phosphoimager and the Quantity One Analysis software (BioRad, Hecules Calif.) was used to analyze suitable exposures of Southern blots. […]

| Structure (SMILES) | IC50 [1] [nM] | IC50 [2] [nM] | sensitivity of recombinant HBV to drug ([2]; recombinant HBV encoding the mutant rtS85A) |
| --- | --- | --- | --- |
| Nc1ncnc2c1ncn2CCOCP(=O)(O)O [ADV, adefovir] | 430 | 5000 to 10000 | reduced sensitivity |
| Nc1ccn([C@@H]2CS[C@H](CO)O2)c(=O)n1 [LMV, (−)-β-2′-deoxy-3′-thiacytidine] | 5 | 10 |  |
